In article PMC7617869, “Molecular glues that inhibit deubiquitylase activity and inflammatory signaling” (Nature Structural & Molecular Biology, 2025):
Values joined by “and” are separate entries in the source; they are usually repeats but may differ in a detail not shown here. Identical values can stand only once. Like-named read-outs stand apart in the source and are kept apart here.

Legend:
BRISC = biological target: T1, BRISC (Homo sapiens, UniProt P46736+Q15018+Q9NXR7); assay: BRISC DUB activity assay (IQF K63-linked diubiquitin); format: biochemical
T1 construct: made in house; host or cells: Spodoptera frugiperda (Sf9) insect cells, MultiBac
Procedure, shortened: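 50 mM HEPES pH 7.0, 100 mM NaCl, 0.1 mg/ml BSA, 1 mM DTT, 0.03% Brij-35; BRISC WT/mutants 1 nM final; IQF K63 diUb 50 nM. Fluorescence read ex 544/em 575 nm each min, 30 min, 30 °C. V0 = progress-curve slope; IC50 by variable-slope dose–response.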

[1] = test system: ISG expression in MCF10A Cas9 cells expressing BRCC45 R137A; assay: MCF10A BRCC45 R137A ISG expression (RT–qPCR); format: cell-based, human; design: scale not given here; conditions: BRCC45 KO+ BRCC45 R137A; replicate values
Protocol: Supplementary Protocols 1. Experimental procedures for cell biology experiments. […]
Media supplements including human insulin solution (Santa Cruz Biotechnology, #sc-360248), cholera toxin from vibrio (Sigma Aldrich, #C8052-2MG), recombinant human EGF (PeproTech, #AF-100-15-100µg), hydrocortisone (Sigma-Aldrich, #H-0888) were used to grow MCF10A cells. The 4–12% Bis-Tris SDS-PAGE gels, cell culture media, horse serum and other materials for tissue culture were purchased from Invitrogen. LipoD293 (SigmaGen, #SL100668) was used for all the transfections to generate knock out cell lines.
Immortalised breast epithelial cell line MCF10A were cultured in 10 cm plates with Dulbecco’s Modified Eagle Medium (DMEM) + F-12 (1:1) supplemented with 5% horse serum, 100 ng/mL cholera toxin, 10 […]
Real-time quantitative PCR
1x10^5 MCF10A cells were cultured as described above and seeded into 6 well plates. Cells were left to reach ultra-confluence. Once confluent, cells were washed with PBS and starved for 30 minutes in 2 mL DMEM + F-12 (1:1) supplemented with 1% horse serum. After 30 minutes cells were pre-treated with either DMSO (0.1%) (Control and IFN only) or BRISC inhibitor (2.5 µM) for 15 minutes. After 15 minutes, hIFN2α (75 ng/mL) was added to the media and mixed. Cells were treated for 4 hours. Cells were washed with ice cold PBS and scraped with cell scrapers into 350 µL RNAlater buffer and RNA […]
#79254). Isolated RNA was quantified using a Nanodrop spectrophotometer. RNA was converted into cDNA and the complementary DNA was used for real-time quantitative PCR analysis of expression of interferon stimulated genes (ISG15, IFIT1, IFIT2, IFITM1, CXCL10 and RNA18S) using an Applied Biosystems Quantstudio 6 RT-PCR system. All experiments were carried out in triplicate.

IC50 (BRISC; 32-point dose-response, biphasic fit, read-out: IC50(1), biphasic curve): 7200 nM | IC50 (BRISC; 32-point dose-response, biphasic fit, read-out: IC50(2), biphasic curve): 149 nM | remaining activity at 0.35 µM (BRISC; BRISC WT, FX-171-C 0.35 μM, read-out: Normalised V0): 54.2% | remaining activity at 6.25 µM (BRISC; BRISC WT, FX-171-C 6.25 μM, read-out: Normalised V0): 13% | IC50 (BRISC; FX-171-C IC50, BRISC WT, mutant panel (Extended Data Fig. 7c)): 600 nM | Normalised V0 (BRISC; Fig. 1g, BRISC, FX-171-C 0.0599997 μM): 1.019 | Normalised V0 (BRISC; Fig. 1g, BRISC, FX-171-C 0.0799994 μM): 0.9329 and 1.215 and 0.984 | Normalised V0 (BRISC; Fig. 1g, BRISC, FX-171-C 0.119998 μM): 0.8991 and 1.297 and 1.1131 | Normalised V0 (BRISC; Fig. 1g, BRISC, FX-171-C 0.199996 μM): 0.9109 and 1.1 and 0.9714 | Normalised V0 (BRISC; Fig. 1g, BRISC, FX-171-C 0.499975 μM): 0.8337 and 0.8541 and 0.839 | Normalised V0 (BRISC; Fig. 1g, BRISC, FX-171-C 0.799936 μM): 0.8201 and 0.7671 and 0.7222 | Normalised V0 (BRISC; Fig. 1g, BRISC, FX-171-C 1.25984 μM): 0.7744 and 0.5965 and 0.5179 | Normalised V0 (BRISC; Fig. 1g, BRISC, FX-171-C 1.9996 μM): 0.7381 and 0.4197 and 0.4126 | Normalised V0 (BRISC; Fig. 1g, BRISC, FX-171-C 3.159 μM): 0.4028 and 0.2971 and 0.3289 | Normalised V0 (BRISC; Fig. 1g, BRISC, FX-171-C 5.19739 μM): 0.6152 and 0.3188 and 0.3118 | remaining activity at 0.0599997 µM (BRISC; HsBRISC, FX-171-C 0.0599997 μM, read-out: Normalised V0): 102% | remaining activity at 0.199996 µM (BRISC; HsBRISC, FX-171-C 0.199996 μM, read-out: Normalised V0): 91.1% | remaining activity at 0.499975 µM (BRISC; HsBRISC, FX-171-C 0.499975 μM, read-out: Normalised V0): 83.4% | remaining activity at 0.799937 µM (BRISC; HsBRISC, FX-171-C 0.799937 μM, read-out: Normalised V0): 82% | remaining activity at 3.159 µM (BRISC; HsBRISC, FX-171-C 3.159 μM, read-out: Normalised V0): 40.3% | remaining activity at 19.96 µM (BRISC; HsBRISC, FX-171-C 19.96 μM, read-out: Normalised V0): 18.8% | remaining activity at 31.4999 µM (BRISC; HsBRISC, FX-171-C 31.4999 μM, read-out: Normalised V0): 18.9% | remaining activity at 79.7601 µM (BRISC; HsBRISC, FX-171-C 79.7601 μM, read-out: Normalised V0): 22.3% | remaining activity at 125.99 µM (BRISC; HsBRISC, FX-171-C 125.99 μM, read-out: Normalised V0): 16.2% | IC50 (BRISC; IQF K63-linked diubiquitin substrate, read-out: IC50, inhibition of BRISC DUB activity): 1400 nM | Normalised V0 (BRISC; [Inhibitor] 0.02 μM, replicate columns): 0.8164 and 1.359 and 1.027 | Normalised V0 (BRISC; [Inhibitor] 0.0399999 μM, replicate columns): 0.8327 and 1.212 and 1.032 | Normalised V0 (BRISC; [Inhibitor] 0.0599997 μM, replicate columns): 1.019 and 1.179 and 1.007 | Normalised V0 (BRISC; [Inhibitor] 0.0799994 μM, replicate columns): 0.9329 and 1.215 and 0.984 | Normalised V0 (BRISC; [Inhibitor] 0.119998 μM, replicate columns): 0.8991 and 1.297 and 1.1131 | Normalised V0 (BRISC; [Inhibitor] 0.199996 μM, replicate columns): 0.9109 and 1.1 and 0.9714 | Normalised V0 (BRISC; [Inhibitor] 0.499975 μM, replicate columns): 0.8337 and 0.8541 and 0.839 | Normalised V0 (BRISC; [Inhibitor] 0.799936 μM, replicate columns): 0.8201 and 0.7671 and 0.7222 | Normalised V0 (BRISC; [Inhibitor] 1.25984 μM, replicate columns): 0.7744 and 0.5965 and 0.5179 | Normalised V0 (BRISC; [Inhibitor] 1.9996 μM, replicate columns): 0.7381 and 0.4197 and 0.4126 | Normalised V0 (BRISC; [Inhibitor] 3.159 μM, replicate columns): 0.4028 and 0.2971 and 0.3289 | Normalised V0 (BRISC; [Inhibitor] 5.19739 μM, replicate columns): 0.6152 and 0.3188 and 0.3118 | Normalised V0 (BRISC; [Inhibitor] 7.99364 μM, replicate columns): 0.4919 and 0.2336 and 0.2963 | Normalised V0 (BRISC; [Inhibitor] 12.7839 μM, replicate columns): 0.5596 and 0.3112 and 0.2492 | Normalised V0 (BRISC; [Inhibitor] 19.96 μM, replicate columns): 0.1876 and 0.174 and 0.161 | Normalised V0 (BRISC; [Inhibitor] 31.4999 μM, replicate columns): 0.1887 and 0.2421 and 0.2131 | Normalised V0 (BRISC; [Inhibitor] 50.147 μM, replicate columns): 0.05691 and 0.1395 and 0.2567 | Normalised V0 (BRISC; [Inhibitor] 79.7601 μM, replicate columns): 0.2227 and 0.2164 and 0.1439 | Normalised V0 (BRISC; [Inhibitor] 125.99 μM, replicate columns): 0.1622 and 0.2082 and 0.2077 | Normalised V0 (BRISC; [Inhibitor] 199.922 μM, replicate columns): 0.03119 and 0.1486 and 0.1232 | Normalised velocity (V0) (BRISC; inhibitor 0.000794328 μM): 1 | Normalised velocity (V0) (BRISC; inhibitor 0.00125892 μM): 0.9709 and 1.087 | Normalised velocity (V0) (BRISC; inhibitor 0.00199526 μM): 0.9893 and 1.074 | Normalised velocity (V0) (BRISC; inhibitor 0.00316228 μM): 1.07 and 1.182 | Normalised velocity (V0) (BRISC; inhibitor 0.00501187 μM): 1.042 and 1.106 | Normalised velocity (V0) (BRISC; inhibitor 0.00794328 μM): 1.04 and 1.13 | Normalised velocity (V0) (BRISC; inhibitor 0.0125893 μM): 0.9855 and 1.097 | Normalised velocity (V0) (BRISC; inhibitor 0.0199526 μM): 1.04 and 1.062 | Normalised velocity (V0) (BRISC; inhibitor 0.0316228 μM): 0.9173 and 1.065 | Normalised velocity (V0) (BRISC; inhibitor 0.0501187 μM): 0.915 and 1.002 | Normalised velocity (V0) (BRISC; inhibitor 0.0794328 μM): 0.8247 and 0.8903 | Normalised velocity (V0) (BRISC; inhibitor 0.125893 μM): 0.6057 and 0.745 | Normalised velocity (V0) (BRISC; inhibitor 0.199526 μM): 0.5727 and 0.6444 | Normalised velocity (V0) (BRISC; inhibitor 0.316228 μM): 0.4326 and 0.4719 | Normalised velocity (V0) (BRISC; inhibitor 0.398107 μM): 0.425 and 0.486 | Normalised velocity (V0) (BRISC; inhibitor 0.630957 μM): 0.3369 and 0.3696 | Normalised velocity (V0) (BRISC; inhibitor 1 μM): 0.2871 and 0.3028 | Normalised velocity (V0) (BRISC; inhibitor 1.58489 μM): 0.2427 and 0.2962 | Normalised velocity (V0) (BRISC; inhibitor 2.51189 μM): 0.2711 and 0.2368 | Normalised velocity (V0) (BRISC; inhibitor 3.98107 μM): 0.2213 and 0.2236 | Normalised velocity (V0) (BRISC; inhibitor 6.30957 μM): 0.121 and 0.1898 | Normalised velocity (V0) (BRISC; inhibitor 10 μM): 0.08882 and 0.07343 | Normalised velocity (V0) (BRISC; inhibitor 15.8489 μM): 0.08806 and 0.08498 | Normalised velocity (V0) (BRISC; inhibitor 25.1189 μM): 0 | Normalised velocity (V0) (BRISC; inhibitor 39.8107 μM): 0 | Normalised velocity (V0) (BRISC; inhibitor 63.0957 μM): 0 | Normalised velocity (V0) (BRISC; inhibitor 100 μM): 0
Compound: O=C(NC1C2CNCC21)c1nn(C(=O)c2c(Cl)cccc2Cl)cc1NC(=O)c1c(Cl)cccc1Cl (stereo not shown) [FX-171-C]
Normalised V0 (BRISC; [Inhibitor] 0.013 μM, replicate columns): 0.9661 and 1.259 and 1.028 and 1.106 and 0.9509 and 0.8874 | potency ranking over BRISC orthologs (BRISC; human vs mouse and zebrafish BRISC): highest potency toward human BRISC over mouse and zebrafish BRISC | ISG expression (Fig. 5b) [1]: 1.886 and 0.9791 and 0.9889 and 0.9654 and 2.3346 | ISG expression (Fig. 5c) [1]: 1.805 and 0.9044 and 1.045 and 1.083 and 2.1 | ISG expression (Fig. 5e) [1]: 1.992 and 0.8788 and 0.9319 and 1.019 and 2.187 | ISG expression (Fig. 5f) [1]: 1.937 and 0.8462 and 0.8933 and 0.87 and 0.6063 | ISG expression (Fig. 5d) [1]: 2.039 and 1.092 and 1.112 and 1.2514 and 2.244
